Experimental data published in patent US8158621B2, “Methods of treating or preventing autoimmune diseases with 2,4-pyrimidinediamine compounds” (Rigel Pharmaceuticals, Inc., priority 2002, dated 2012).

Key:
Type in all cases: cell-based
[1] = test system: cultured human mast cells (CHMC); test: CHMC low cell density IgE activation: tryptase assay; settings: low cell density; read-out: CHMC anti-IgE Tryptase
Description: Pellet CHMC cells (980 rpm, 10 min) and resuspend in pre-warmed MT. Add 65 ul of cells to each 96-well plate. Depending on the degranulation activity for each particular CHMC donor, load 1000-1500 cells/well. Mix four times followed by a 1 hr incubation at 37° C. […] Stimulate cells by adding 25 ul of 6× anti-IgE solution to the appropriate plates. Add 25 ul MT to un-stimulated control wells. Mix twice following addition of the anti-IgE. Incubate at 37° C. for 30 minutes. […] Spin plates at 1000 rpm for 10 min to pellet cells. Transfer 25 ul of supernatant to a 96-well black bottom plate and add 100 ul of freshly diluted tryptase substrate solution to each well. Incubate plates at room temperature for 30 min.

[2] = test system: cultured human mast cells (CHMC); test: CHMC low cell density ionomycin activation: tryptase assay; settings: read-out: CHMC Ionomycin Tryptase
[3] = test system: Human Jurkat T-cells (clone N); test: Jurkat T-cell activation (anti-TCR, CD69 upregulation)
How it was run: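 Jurkat cells in RPMI + 5% FBS preincubated with compound 1 h at 37 °C, then stimulated with anti-TCR C305 at 500 ng/ml for 20 h. CD69 surface expression stained with anti-CD69-APC and read by flow cytometry; IC50 versus solvent-only control.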

COc1c(Cl)cc(Nc2ncc(F)c(Nc3ccc4c(c3)NC(=O)C(C)(C)O4)n2)cc1Cl [Compound R927056]
IC50 [1]: 0.144 µM | IC50 ([2]; low cell density): 1.58 µM

COc1ccc(Nc2ncc(F)c(Nc3ccc4c(c3)OCCO4)n2)cc1Cl [Compound R927084]
IC50 [1]: 0.466 µM | IC50 ([2]; low cell density): > 10 µM

Nc1cccc(Nc2nc(Nc3ccc(OC(F)(F)F)c(Cl)c3)ncc2F)n1 [Compound R927081]
IC50 [1]: 2.27 µM | IC50 ([2]; low cell density): > 10 µM

COc1c(Cl)cc(Nc2ncc(F)c(Nc3ccc4c(c3)NC(=O)[C@@H](C)O4)n2)cc1Cl [Compound R908947]
IC50 [1]: 0.496 µM | IC50 ([2]; low cell density): > 10 µM

COc1c(Cl)cc(Nc2ncc(F)c(Nc3ccc4c(c3)C(N)CCO4)n2)cc1Cl (racemic) [Compound R950424]
IC50 [1]: 0.236 µM | IC50 ([2]; low cell density): 4.28 µM

CCN(CC)CCCNc1ncc(F)c(Nc2ccc3c(c2)C(=O)NC(=O)C3(C)C)n1 [Compound R950472]
IC50 [1]: 6.95 µM | IC50 ([2]; low cell density): > 10 µM

CC(C)(C)OC(=O)NC1CCOc2ccc(Nc3nc(Nc4ccc5cn[nH]c5c4)ncc3F)cc21 (racemic) [Compound R950422]
IC50 [1]: 0.475 µM | IC50 ([2]; low cell density): 6.53 µM

CNC(=O)COc1cccc(Nc2ncc(F)c(Nc3ccc4c(c3)C(=O)NC(=O)C4(C)C)n2)c1 [Compound R909318]
IC50 [1]: 1.02 µM | IC50 ([2]; low cell density): > 10 µM

COc1cc(Nc2ncc(F)c(Nc3ccc(OC)c(Cl)c3)n2)cc(OC)c1 [Compound R927066]
IC50 [1]: 0.283 µM | IC50 ([2]; low cell density): 15.3 µM

O=C(NCCO)C1Cc2cc(Nc3ncc(F)c(Nc4ccc(OC(F)(F)F)c(Cl)c4)n3)ccc2O1 (racemic) [Compound R926959]
IC50 [1]: 0.3 µM | IC50 ([2]; low cell density): > 10 µM

COc1ccc(Nc2ncc(F)c(Nc3ccc4c(c3)NC(=O)C(C)(C)O4)n2)cc1Cl [Compound R927097]
IC50 [1]: 0.163 µM | IC50 ([2]; low cell density): 0.847 µM

CN(C)Cc1cc2cc(Nc3ncc(F)c(Nc4ccc(Cl)c(Cl)c4)n3)ccc2o1 [Compound R926980]
IC50 [1]: 0.68 µM | IC50 ([2]; low cell density): 5.49 µM

CCOC(=O)CCn1cc2cc(Nc3ncc(F)c(Nc4ccc(Cl)c(Cl)c4)n3)ccc2n1 [Compound R935447]
IC50 [1]: 0.511 µM | IC50 ([2]; low cell density): 4.7 µM

Cc1cc(Nc2ncc(F)c(Nc3ccc4c(c3)NC(=O)C(C)(C)O4)n2)cc(C)c1Cl [Compound R927118]
IC50 [1]: 0.065 µM | IC50 ([2]; low cell density): 3.49 µM

CC1(C)C(=O)NC(=O)c2cc(Nc3nc(N[C@@H]4CCCC[C@H]4N)ncc3F)ccc21 [Compound R950442]
IC50 [1]: > 10 µM | IC50 ([2]; low cell density): > 10 µM

Fc1cnc(Nc2ccc(N3CCOCC3)cc2)nc1NC1CC1 [Compound R945356]
IC50 [1]: 1.17 µM | IC50 ([2]; low cell density): > 10 µM

CNC(=O)COc1cccc(Nc2ncc(F)c(Nc3ccc(OCCO)c(Cl)c3)n2)c1 [Compound R927047]
IC50 [1]: 0.168 µM | IC50 ([2]; low cell density): > 10 µM

CNC(=O)n1ccc2ccc(Nc3nc(Nc4cc(OC)cc(OC)c4)ncc3F)cc21 [Compound R926995]
IC50 [1]: 9.56 µM | IC50 ([2]; low cell density): > 10 µM

COc1ccc(Nc2nc(Nc3ccc4cn[nH]c4c3)ncc2F)cc1Cl [Compound R935408]
IC50 [1]: 0.137 µM | IC50 ([2]; low cell density): 9.94 µM

COc1cc(Nc2ncc(F)c(Nc3ccc4c(c3)C(N)CCO4)n2)cc(OC)c1 (racemic) [Compound R950426]
IC50 [1]: 0.142 µM | IC50 ([2]; low cell density): 30 µM

COc1ccc(Nc2nc(Nc3ccc4cn(C)nc4c3)ncc2F)cc1Cl [Compound R935446]
IC50 [1]: 0.395 µM | IC50 ([2]; low cell density): > 10 µM

CCN(CC)CCCNc1ncc(F)c(Nc2ccc(Cl)c(Cl)c2)n1 [Compound R950470]
IC50 [1]: 16.2 µM | IC50 ([2]; low cell density): > 10 µM

Cn1cc2ccc(Nc3ncc(F)c(Nc4ccc(Cl)c(Cl)c4)n3)cc2n1 [Compound R935444]
IC50 [1]: 0.429 µM | IC50 ([2]; low cell density): > 10 µM

CC1(C)Oc2ccc(Nc3ncc(F)c(Nc4ccc5cn[nH]c5c4)n3)cc2NC1=O [Compound R935440]
IC50 [1]: 0.176 µM | IC50 ([2]; low cell density): 88 µM

COc1c(Cl)cc(Nc2ncc(F)c(Nc3ccc4c(c3)NC(=O)[C@H](C)O4)n2)cc1Cl [Compound R908946]
IC50 [1]: 0.51 µM | IC50 ([2]; low cell density): > 10 µM

CCN(CC)CCNC(=O)c1ccc(Nc2ncc(F)c(Nc3ccc4c(c3)C(=O)NC(=O)C4(C)C)n2)cc1 [Compound R950447]
IC50 [1]: 1.42 µM | IC50 ([2]; low cell density): > 10 µM

CNC(=O)n1ccc2ccc(Nc3ncc(F)c(Nc4ccc(OC)c(Cl)c4)n3)cc21 [Compound R927094]
IC50 [1]: > 10 µM | IC50 ([2]; low cell density): > 10 µM

CNC(=O)COc1cccc(Nc2ncc(F)c(Nc3ccc4c(c3)C(N(C)C(=O)OC(C)(C)C)CCO4)n2)c1 (racemic) [Compound R950415]
IC50 [1]: 5.19 µM | IC50 ([2]; low cell density): 16.3 µM

COc1ccc(Nc2nc(Nc3ccc4c(cnn4CCCO)c3)ncc2F)cc1Cl [Compound R935461]
IC50 [1]: 0.134 µM | IC50 ([2]; low cell density): 5.03 µM

CNC(=O)COc1cccc(Nc2ncc(F)c(Nc3ccc4c(c3)C(NC(=O)OC(C)(C)C)CCO4)n2)c1 (racemic) [Compound R950405]
IC50 [1]: 1.36 µM | IC50 ([2]; low cell density): > 10 µM

COc1ccc(Nc2nc(Nc3ccc4[nH]ncc4c3)ncc2F)cc1Cl [Compound R935459]
IC50 [1]: 0.343 µM | IC50 ([2]; low cell density): 4.7 µM

CNCC1Cc2cc(Nc3ncc(F)c(Nc4ccc(OC)c(Cl)c4)n3)ccc2O1 (racemic) [Compound R927045]
IC50 [1]: 0.535 µM | IC50 ([2]; low cell density): > 10 µM

CC(C)Oc1ccc(Nc2nc(Nc3ccc4c(c3)C[C@H](C(=O)O[C@@H]3C[C@H](C)CC[C@H]3C(C)C)O4)ncc2F)cc1 [Compound R927062]
IC50 [1]: 15.4 µM | IC50 ([2]; low cell density): > 10 µM

CC1(C)Oc2ccc(Nc3nc(Nc4ccc5cc[nH]c5c4)ncc3F)nc2NC1=O [Compound R945444]
IC50 [1]: 0.043 µM | IC50 ([2]; low cell density): > 10 µM

CCOC(=O)CCn1ncc2cc(Nc3ncc(F)c(Nc4ccc(OC)c(Cl)c4)n3)ccc21 [Compound R935460]
IC50 [1]: 0.748 µM | IC50 ([2]; low cell density): 15.6 µM

CN(CCO)C(=O)C1Cc2cc(Nc3ncc(F)c(Nc4ccc(OC(F)(F)F)c(Cl)c4)n3)ccc2O1 (racemic) [Compound R926960]
IC50 [1]: 0.399 µM | IC50 ([2]; low cell density): > 10 µM

CNC(=O)CCn1ncc2cc(Nc3ncc(F)c(Nc4ccc(OC)c(Cl)c4)n3)ccc21 [Compound R935462]
IC50 [1]: 0.364 µM | IC50 ([2]; low cell density): > 10 µM

O=C(COc1cccc(Nc2ncc(F)c(NC3CCC3)n2)c1)NC1CC1 [Compound R945393]
IC50 [1]: 1.34 µM | IC50 ([2]; low cell density): 21.7 µM

COc1cc(Nc2nc(Nc3ccc4cnn(C)c4c3)ncc2F)ccc1F [Compound R935449]
IC50 [1]: 0.372 µM | IC50 ([2]; low cell density): 7.8 µM

COc1cc(Nc2ncc(F)c(Nc3cccc(NC(C)=O)n3)n2)cc(OC)c1 [Compound R927096]
IC50 [1]: 0.402 µM | IC50 ([2]; low cell density): > 10 µM

COc1cc(Nc2nc(Nc3ccc4cn(C)nc4c3)ncc2F)ccc1F [Compound R935450]
IC50 [1]: 0.494 µM | IC50 ([2]; low cell density): > 10 µM

COc1ccc(Nc2nc(Nc3cccc(OCC(=O)NC4CCC4)c3)ncc2F)cc1Cl [Compound R926969]
IC50 [1]: 0.359 µM | IC50 ([2]; low cell density): > 10 µM

O=C(COc1cccc(Nc2ncc(F)c(NC3CC3)n2)c1)NC1CC1 [Compound R945363]
IC50 [1]: 0.687 µM | IC50 ([2]; low cell density): > 10 µM

CC1(C)Oc2ccc(Nc3ncc(F)c(Nc4ccc5[nH]ncc5c4)n3)cc2NC1=O [Compound R935438]
IC50 [1]: 0.414 µM | IC50 ([2]; low cell density): 23 µM

COC(=O)COc1cccc(Nc2ncc(F)c(Nc3ccc(N4CCOCC4)cc3)n2)c1 [Compound R945361]
IC50 [1]: 2.36 µM | IC50 ([2]; low cell density): > 10 µM

COc1ccc(Nc2nc(Nc3cccc(OCC(=O)NCC(O)CO)c3)ncc2F)cc1Cl (racemic) [Compound R926964]
IC50 [1]: 0.368 µM | IC50 ([2]; low cell density): > 10 µM

CNC(=O)COc1cccc(Nc2ncc(F)c(Nc3ccc(OCC(=O)NC)c(Cl)c3)n2)c1 [Compound R927043]
IC50 [1]: 0.45 µM | IC50 ([2]; low cell density): > 10 µM

CNC(=O)COc1cccc(Nc2ncc(F)c(Nc3ccc4c(c3)C(N(C)C(=O)CN(C)C)CCO4)n2)c1 (racemic) [Compound R950419]
IC50 [1]: 3.26 µM | IC50 ([2]; low cell density): > 10 µM

O=C(COc1cccc(Nc2ncc(F)c(Nc3ccc(N4CCOCC4)cc3)n2)c1)NC1CCC1 [Compound R945362]
IC50 [1]: 1.57 µM | IC50 ([2]; low cell density): > 10 µM

O=C(O)C1Cc2cc(Nc3ncc(F)c(Nc4ccc(OC(F)(F)F)c(Cl)c4)n3)ccc2O1 (stereo not drawn) [Compound R926957]
IC50 [1]: 1.52 µM | IC50 ([2]; low cell density): > 10 µM

COC(=O)c1cc(Nc2nc(Nc3ccc(OC(C)C)cc3)ncc2F)cn1C [Compound R935165]
IC50 [3]: > 10 µM | IC50 ([2]; Low Density): > 10 µM

NC1CCOc2ccc(Nc3nc(Nc4ccc5cn[nH]c5c4)ncc3F)cc21 (racemic) [Compound R950423]
IC50 [1]: 0.05 µM | IC50 ([2]; low cell density): > 10 µM

Cc1cccc(C)c1Nc1ncc(F)c(Nc2ccc3cc[nH]c3c2)n1 [Compound R927088]
IC50 [1]: 0.117 µM | IC50 ([2]; low cell density): > 10 µM

COc1cc(Nc2ncc(F)c(Nc3ccc4c(c3)NC(=O)C(C)(C)O4)n2)cc(OC)c1 [Compound R927074]
IC50 [1]: 0.072 µM | IC50 ([2]; low cell density): 1.38 µM

Cn1ncc2ccc(Nc3ncc(F)c(Nc4ccc5c(c4)OCCO5)n3)cc21 [Compound R935392]
IC50 [1]: 0.204 µM | IC50 ([2]; low cell density): > 10 µM

COc1cc(Nc2ncc(F)c(Nc3ccc4c(c3)NC(=O)[C@@H](C)O4)n2)cc(OC)c1 [Compound R908954]
IC50 ([2]; low cell density): > 10 µM

Cc1cc(Nc2nc(Nc3cccc(OCCN4CCOCC4)c3)ncc2F)cc(Cl)c1O [Compound R940269]
IC50 [3]: 1.9 µM | IC50 ([2]; Low Density): > 10 µM

CC1(C)Oc2ccc(Nc3nc(Nc4ccc5cn[nH]c5c4)ncc3F)cc2NC1=O [Compound R935430]
IC50 ([2]; low cell density): 9.3 µM
